The target in the assay is T1, F508del (Homo sapiens, UniProt P13569, DEL508-508).
T1 construct: expressed in transfected cells
Briefly: Protocol 1: membrane potential optical assay (FLIPR III, voltage sensing dye), identification of potentiator compounds. In kind it is cell-based. Conditions: Table 3, compounds of Table 1. Put shortly: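 Mouse NIH 3T3 fibroblasts stably expressing F508del, temperature-corrected at 27 °C for 24 h, pretreated with compound, then loaded with voltage-sensing redistribution dye. Forskolin was added in a single step with a chloride gradient (chloride-free gluconate bath; Bath Solution #1 HEPES pH 7.4). Membrane-potential fluorescence read on FLIPR III.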

T1 sequence (P13569 with tags, fused parts or gaps DEL508-508): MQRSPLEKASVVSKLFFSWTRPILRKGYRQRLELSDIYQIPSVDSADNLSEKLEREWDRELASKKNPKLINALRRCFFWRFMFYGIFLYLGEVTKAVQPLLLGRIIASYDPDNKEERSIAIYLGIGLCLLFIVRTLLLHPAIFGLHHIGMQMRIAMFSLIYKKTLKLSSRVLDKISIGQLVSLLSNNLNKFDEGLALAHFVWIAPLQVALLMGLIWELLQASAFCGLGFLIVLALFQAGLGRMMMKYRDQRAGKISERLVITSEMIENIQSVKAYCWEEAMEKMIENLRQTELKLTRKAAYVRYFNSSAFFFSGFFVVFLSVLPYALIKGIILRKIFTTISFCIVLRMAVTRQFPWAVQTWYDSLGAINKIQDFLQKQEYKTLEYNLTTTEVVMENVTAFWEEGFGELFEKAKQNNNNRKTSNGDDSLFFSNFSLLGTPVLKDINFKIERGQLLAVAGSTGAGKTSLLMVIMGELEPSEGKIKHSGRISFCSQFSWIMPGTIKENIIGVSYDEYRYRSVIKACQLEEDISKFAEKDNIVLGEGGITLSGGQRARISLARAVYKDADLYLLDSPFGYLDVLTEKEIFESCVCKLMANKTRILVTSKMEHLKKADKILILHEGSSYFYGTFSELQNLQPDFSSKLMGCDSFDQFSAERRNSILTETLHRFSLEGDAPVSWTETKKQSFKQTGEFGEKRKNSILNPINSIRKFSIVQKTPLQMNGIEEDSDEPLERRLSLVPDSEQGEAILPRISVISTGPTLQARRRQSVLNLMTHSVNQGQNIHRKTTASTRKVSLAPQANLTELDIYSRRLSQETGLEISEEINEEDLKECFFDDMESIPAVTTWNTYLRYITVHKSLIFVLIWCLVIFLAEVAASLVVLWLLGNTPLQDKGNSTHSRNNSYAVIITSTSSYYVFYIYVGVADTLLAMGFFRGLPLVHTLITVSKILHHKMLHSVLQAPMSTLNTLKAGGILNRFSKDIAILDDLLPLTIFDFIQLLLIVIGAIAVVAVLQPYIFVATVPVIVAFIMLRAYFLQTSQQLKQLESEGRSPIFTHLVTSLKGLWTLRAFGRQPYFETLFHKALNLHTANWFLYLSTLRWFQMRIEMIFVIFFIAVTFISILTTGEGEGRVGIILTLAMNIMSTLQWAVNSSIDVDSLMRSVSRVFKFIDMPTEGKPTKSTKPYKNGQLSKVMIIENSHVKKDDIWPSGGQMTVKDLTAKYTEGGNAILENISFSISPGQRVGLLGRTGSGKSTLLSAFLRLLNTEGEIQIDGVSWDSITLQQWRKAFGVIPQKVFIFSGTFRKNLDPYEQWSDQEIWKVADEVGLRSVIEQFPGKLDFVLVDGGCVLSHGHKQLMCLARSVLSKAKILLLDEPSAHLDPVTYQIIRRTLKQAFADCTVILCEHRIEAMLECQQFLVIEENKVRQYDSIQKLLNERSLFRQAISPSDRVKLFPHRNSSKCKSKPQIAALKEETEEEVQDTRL

For `C=Cc1cc(C(=O)NS(=O)(=O)c2cccc(N)n2)c(N2C[C@@H](C)CC2(C)C)nc1C(C)(C)C` [Compound 1373, N-[(6-amino-2-pyridyl)sulfonyl]-6-tert-butyl-2-[(4S)-2,2,4-trimethylpyrrolidin-1-yl]-5-vinyl-pyridine-3-carboxamide], the EC30 entry was “+++ (“+++” means <3 uM)”.

With `C[C@@H]1CN(c2nc(-c3cc(F)cc(F)c3)ccc2C(=O)NS(=O)(=O)N2CC[C@H](N)C2)C(C)(C)C1` [Compound 1716, N-[(3S)-3-aminopyrrolidin-1-yl]sulfonyl-6-(3,5-difluorophenyl)-2-[(4S)-2,2,4-trimethylpyrrolidin-1-yl]pyridine-3-carboxamide], the EC30 result is “++ (“++” means between 3 uM and 10 uM)”.

On to `CC1CN(c2ncccc2C(=O)NS(=O)(=O)c2cccc(NC3CCC(C(C)(C)C)CC3)n2)C(C)(C)C1` (stereo not drawn) [Compound 1971, N—[[6-[(4-tert-butylcyclohexyl)amino]-2-pyridyl]sulfonyl]-2-(2,2,4-trimethylpyrrolidin-1-yl)pyridine-3-carboxamide], for which the EC30 entry was “+++ (“+++” means <3 uM)”.

On to `CC(C)COc1cc(F)cc(-c2ccc(C(=O)NS(=O)(=O)c3ccc(OCc4ccccc4)c(N)n3)c(N3C[C@@H](C)CC3(C)C)n2)c1` [Compound 1429, N-[(6-amino-5-benzyloxy-2-pyridyl)sulfonyl]-6-(3-fluoro-5-isobutoxy-phenyl)-2-[(4S)-2,2,4-trimethylpyrrolidin-1-yl]pyridine-3-carboxamide], for which the EC30 entry was “+++ (“+++” means <3 uM)”.

`CC1CN(c2nc(C(C)(C)C)c(C3=CC(C)(C)OC(C)(C)C3)cc2C(=O)NS(=O)(=O)c2cccc(N)n2)C(C)(C)C1` (stereo not drawn) [Compound 1647, N-[(6-amino-2-pyridyl)sulfonyl]-6-tert-butyl-5-(2,2,6,6-tetramethyl-3H-pyran-4-yl)-2-(2,2,4-trimethylpyrrolidin-1-yl)pyridine-3-carboxamide]: the EC30 result is “+++ (“+++” means <3 uM)”.

With `COc1ccc(F)cc1-c1ccc(C(=O)NS(=O)(=O)c2ccc[nH]c2=O)c(N2C[C@@H](C)CC2(C)C)n1` [Compound 1830, 6-(5-fluoro-2-methoxy-phenyl)-N-[(2-oxo-1H-pyridin-3-yl)sulfonyl]-2-[(4S)-2,2,4-trimethylpyrrolidin-1-yl]pyridine-3-carboxamide], the EC30 result is on record as “+++ (“+++” means <3 uM)”.

As to `COc1ccc(C(=O)NS(=O)(=O)c2cccc(N)n2)c(N2C[C@@H](C)CC2(C)C)n1` [Compound 1536, N-[(6-amino-2-pyridyl)sulfonyl]-6-methoxy-2-[(4S)-2,2,4-trimethylpyrrolidin-1-yl]pyridine-3-carboxamide], the EC30 entry was “++ (“++” means between 3 uM and 10 uM)”.

For `C[C@@H]1CN(c2nc(-c3ccccc3)ccc2C(=O)NS(=O)(=O)N2CC[C@H](N)C2)C(C)(C)C1` [Compound 1725, N-[(3S)-3-aminopyrrolidin-1-yl]sulfonyl-6-phenyl-2-[(4S)-2,2,4-trimethylpyrrolidin-1-yl]pyridine-3-carboxamide], the EC30 entry was “++ (“++” means between 3 uM and 10 uM)”.

As to `Cc1cc(C)c(Oc2nc(C3CC(=O)CC(C)(C)C3)ccc2C(=O)NS(=O)(=O)c2cccc(N)n2)c(C)c1` (stereo not drawn) [Compound 1492, N-[(6-amino-2-pyridyl)sulfonyl]-6-(3,3-dimethyl-5-oxo-cyclohexyl)-2-(2,4,6-trimethylphenoxy)pyridine-3-carboxamide], the EC30 entry was “++ (“++” means between 3 uM and 10 uM)”.

On to `C[C@@H]1CN(c2nc(-c3ccccc3C(F)(F)F)ccc2C(=O)NS(=O)(=O)c2ccc[nH]c2=O)C(C)(C)C1` [Compound 1960, N-[(2-oxo-1H-pyridin-3-yl)sulfonyl]-6-[2-(trifluoromethyl)phenyl]-2-[(4S)-2,2,4-trimethylpyrrolidin-1-yl]pyridine-3-carboxamide], for which the EC30 entry is on record as “+++ (“+++” means <3 uM)”.

As to `Cc1cc(C)c(Oc2nc(C3=CCC(C(C)C)CC3)ccc2C(=O)NS(=O)(=O)c2cccc(N)n2)c(C)c1` (stereo not drawn) [Compound 1630, N-[(6-amino-2-pyridyl)sulfonyl]-6-(4-isopropylcyclohexen-1-yl)-2-(2,4,6-trimethylphenoxy)pyridine-3-carboxamide], the EC30 entry was “+++ (“+++” means <3 uM)”.

As to `CCc1cccc2c(C(=O)NS(=O)(=O)c3cccc(N)n3)n(Cc3c(C)cc(C)cc3C)nc12` [Compound 1086, N-[(6-amino-2-pyridyl)sulfonyl]-7-ethyl-2-[(2,4,6-trimethylphenyl)methyl]indazole-3-carboxamide], the EC30 result was “++ (“++” means between 3 uM and 10 uM)”.

With `CC1CN(c2nc(-c3ccc(Cl)cc3)ccc2C(=O)NS(=O)(=O)c2cccc(N)n2)C(C)(C)C1` (stereo not drawn) [Compound 1100, N-[(6-amino-2-pyridyl)sulfonyl]-6-(4-chlorophenyl)-2-(2,2,4-trimethylpyrrolidin-1-yl)pyridine-3-carboxamide], the EC30 result was “+++ (“+++” means <3 uM)”.

Regarding `CCOCCOc1cc(-c2ccc(C(=O)NS(=O)(=O)c3cccc(N)n3)c(N3C[C@@H](C)CC3(C)C)n2)cc(C)n1` [Compound 1948, N-[(6-amino-2-pyridyl)sulfonyl]-6-[2-(2-ethoxyethoxy)-6-methyl-4-pyridyl]-2-[(4S)-2,2,4-trimethylpyrrolidin-1-yl]pyridine-3-carboxamide], the EC30 entry is reported as “+++ (“+++” means <3 uM)”.

Take `CC(C)COc1ccc(-c2ccc(C(=O)NS(=O)(=O)c3ccc[nH]c3=O)c(N3[C@H](C)CC[C@@H]3C)n2)cc1` [Compound 891, 2-[(2S,5R)-2,5-dimethylpyrrolidin-1-yl]-6-(4-isobutoxyphenyl)-N-[(2-oxo-1H-pyridin-3-yl)sulfonyl]pyridine-3-carboxamide]: the EC30 result is recorded as “+++ (“+++” means <3 uM)”.

For `Cc1cc(C)c(Oc2nc(-c3ccc(C)c(F)c3)ccc2C(=O)NS(=O)(=O)c2cccc(N)n2)c(C)c1` [Compound 1000, N-[(6-amino-2-pyridyl)sulfonyl]-6-(3-fluoro-4-methyl-phenyl)-2-(2,4,6-trimethylphenoxy)pyridine-3-carboxamide], the EC30 entry was “+++ (“+++” means <3 uM)”.

For the molecule `Cc1ccc(NCC(C)C)nc1-c1ccc(C(=O)NS(=O)(=O)c2cccc(N)n2)c(N2CC(C)CC2(C)C)n1` (stereo not drawn) [Compound 1417, N-[(6-amino-2-pyridyl)sulfonyl]-6-[6-(isobutylamino)-3-methyl-2-pyridyl]-2-(2,2,4-trimethylpyrrolidin-1-yl)pyridine-3-carboxamide], the EC30 entry was “++ (“++” means between 3 uM and 10 uM)”.

As for `C[C@@H]1CN(c2nc(-c3cccc(C#N)c3)ccc2C(=O)NS(=O)(=O)c2cccnc2N)C(C)(C)C1` [Compound 1824, N-[(2-amino-3-pyridyl)sulfonyl]-6-(3-cyanophenyl)-2-[(4S)-2,2,4-trimethylpyrrolidin-1-yl]pyridine-3-carboxamide], the EC30 entry is listed as “+++ (“+++” means <3 uM)”.

Consider `Cc1ccc(Oc2nc(-c3cc(F)cc(OC(C)C)c3)ccc2C(=O)NS(=O)(=O)c2cc[nH]n2)c(C)c1` [Compound 1213, 2-(2,4-dimethylphenoxy)-6-(3-fluoro-5-isopropoxy-phenyl)-N-(1H-pyrazol-3-ylsulfonyl)pyridine-3-carboxamide], for which the EC30 result is “++ (“++” means between 3 uM and 10 uM)”.

For `CC1CN(c2ncccc2C(=O)NS(=O)(=O)c2cccc(N3CCN(C4CCCC4)CC3)n2)C(C)(C)C1` (stereo not drawn) [Compound 1733, N—[[6-(4-cyclopentylpiperazin-1-yl)-2-pyridyl]sulfonyl]-2-(2,2,4-trimethylpyrrolidin-1-yl)pyridine-3-carboxamide], the EC30 result is “++ (“++” means between 3 uM and 10 uM)”.

Take `Cc1cc(C)c(Cn2c(C(=O)NS(=O)(=O)c3cccc(N)c3)cc3ccc(C#N)cc32)c(C)c1` [Compound 1082, N-(3-aminophenyl)sulfonyl-6-cyano-1-[(2,4,6-trimethylphenyl)methyl]indole-2-carboxamide]: the EC30 entry is given as “+ (“+” means greater than 10 uM)”.

Consider `CC(C)COc1cc(F)cc(-c2ccc(C(=O)NS(=O)(=O)c3cccc(N)n3)c(OCCCc3cccnc3)n2)c1` [Compound 1691, N-[(6-amino-2-pyridyl)sulfonyl]-6-(3-fluoro-5-isobutoxy-phenyl)-2-[3-(3-pyridyl)propoxy]pyridine-3-carboxamide], for which the EC30 result was “++ (“++” means between 3 uM and 10 uM)”.

In the case of `CC(C)COc1cc(F)cc(-c2ccc(C(=O)NS(=O)(=O)c3nc(N)cs3)c(N3CC(C)CC3(C)C)n2)c1` (stereo not drawn) [Compound 842, N-(4-aminothiazol-2-yl)sulfonyl-6-(3-fluoro-5-isobutoxy-phenyl)-2-(2,2,4-trimethylpyrrolidin-1-yl)pyridine-3-carboxamide], the EC30 entry is recorded as “+++ (“+++” means <3 uM)”.

Regarding `CCN(CC)c1cccc(-c2ccc(C(=O)NS(=O)(=O)c3cccnc3N)c(N3C[C@@H](C)CC3(C)C)n2)n1` [Compound 1845, N-[(2-amino-3-pyridyl)sulfonyl]-6-[6-(diethylamino)-2-pyridyl]-2-[(4S)-2,2,4-trimethylpyrrolidin-1-yl]pyridine-3-carboxamide], the EC30 entry is “+++ (“+++” means <3 uM)”.

Consider `CC1CN(c2ncc(-c3cc(OC(C)C)cc(C(F)(F)F)c3)cc2C(=O)NS(=O)(=O)c2cccc(N)n2)C(C)(C)C1` (stereo not drawn) [Compound 1815, N-[(6-amino-2-pyridyl)sulfonyl]-5-[3-isopropoxy-5-(trifluoromethyl)phenyl]-2-(2,2,4-trimethylpyrrolidin-1-yl)pyridine-3-carboxamide], for which the EC30 result is “+++ (“+++” means <3 uM)”.

For the molecule `CC1CN(c2ncccc2C(=O)NS(=O)(=O)c2cccc(Nc3cccc4cccnc34)n2)C(C)(C)C1` (stereo not drawn) [Compound 1826, N—[[6-(8-quinolylamino)-2-pyridyl]sulfonyl]-2-(2,2,4-trimethylpyrrolidin-1-yl)pyridine-3-carboxamide], the EC30 entry was “+++ (“+++” means <3 uM)”.

For the molecule `CC(C)COc1ccc(F)c(-c2ccc(C(=O)NS(=O)(=O)c3cccc(N)n3)c(N3CC(C)CC3(C)C)n2)c1` (stereo not drawn) [Compound 1194, N-[(6-amino-2-pyridyl)sulfonyl]-6-(2-fluoro-5-isobutoxy-phenyl)-2-(2,2,4-trimethylpyrrolidin-1-yl)pyridine-3-carboxamide], the EC30 entry is on record as “+++ (“+++” means <3 uM)”.

For the origin of these results see patent US10758534B2 (Vertex Pharmaceuticals Incorporated, priority 2014, dated 2020).
